{
  "source": "patent US6703409B2",
  "about": "“2′-Halo-3′,5′-dialkoxyphen-1′-yl-imino-2-imidazolidine and the use thereof as a drug” (Boehringer Ingelheim Pharma GmbH & Co KG, priority 2002, dated 2004)",
  "key": {"CYP2D6": {"target": "CYP2D6 (Homo sapiens, UniProt P10635)", "sequence (P10635 whole entry, species assumed)": "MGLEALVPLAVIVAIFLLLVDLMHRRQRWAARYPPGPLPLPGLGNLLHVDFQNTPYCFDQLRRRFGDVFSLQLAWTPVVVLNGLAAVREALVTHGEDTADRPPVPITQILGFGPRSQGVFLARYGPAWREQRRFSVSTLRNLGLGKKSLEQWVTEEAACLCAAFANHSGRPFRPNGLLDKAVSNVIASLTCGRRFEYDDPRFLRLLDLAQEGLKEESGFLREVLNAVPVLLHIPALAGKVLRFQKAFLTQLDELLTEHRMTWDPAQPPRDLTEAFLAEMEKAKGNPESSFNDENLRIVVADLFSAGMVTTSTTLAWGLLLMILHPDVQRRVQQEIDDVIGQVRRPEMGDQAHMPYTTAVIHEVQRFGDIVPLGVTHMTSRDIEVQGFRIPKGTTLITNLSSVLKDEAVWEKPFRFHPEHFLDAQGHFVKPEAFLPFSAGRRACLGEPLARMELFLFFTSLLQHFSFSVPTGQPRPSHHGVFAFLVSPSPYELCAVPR", "assay": "Metabolism by the enzyme CYP2D6", "type": "in vitro ADME", "details": "CYP2D6, after 30 minutes", "procedure": "To determine the metabolism the enzyme CYP2D6 was reacted with 2′-Chloro-3′,5′-dimethoxyphen-1′-yl-imino-2-imidazolidine. After 30 minutes 2.4% of the substance had been broken down by the enzyme."}, "[1]": {"test_system": "isolated dog femoral artery", "assay": "Maximum contraction in the isolated dog femoral artery compared with noradrenaline", "details": "as percentage of contraction compared with noradrenaline", "text": "(§1) The maximum contraction in the isolated dog femoral artery and the human urethra are given as percentages of contraction compared with noradrenaline."}, "human urethra": {"test_system": "human urethra", "assay": "Maximum contraction in the human urethra compared with noradrenaline", "details": "as percentage of contraction compared with noradrenaline", "text": "as §1"}},
  "data": [
    {"compound": "COc1cc(N=C2NCCN2)c(Cl)c(OC)c1", "note": "[2′-chloro-3′,5′-dimethoxyphen-1′-yl-imino-2-imidazolidine]", "values": [
      {"measurement": "substance broken down by the enzyme", "setting": "CYP2D6", "result": 2.4, "unit": "%"},
      {"measurement": "activity in the dog", "setting": "[1]", "result": 65, "unit": "%"},
      {"measurement": "activity on human urethra", "setting": "human urethra", "result": 66.2, "unit": "%"}
    ]}
  ]
}
